From PubChem BioAssay AID1996
In brackets after ≈: the same amount, converted by molar mass.

Details: buffer; pH 7.4; 200.0 µM

SMILES | solubility kinetic [µg/mL]
CCN(Cc1ccncc1)C(=O)CCc1ccccc1 | 33.4 (≈ 124 µM)
Cc1ccc(C(C)C)c(OCCN2CCc3ccccc3C2)c1.Cl | < 0.7
O=C(CN1CCCC1c1cccs1)Nc1cc(S(=O)(=O)N2CCCC2)ccc1Cl (configuration not stated) | 1.6 (≈ 3.52 µM)
O=C(c1cccc(F)c1)N1CCC2(CC1)NCCc1[nH]cnc12 | > 47.2
CCCC(=O)N1CCC(CCC(=O)NC2CC2)CC1 | > 40
CCN(C(=O)COc1ccc(C)cc1OC)c1cccc2ccccc12 | 33.7 (≈ 96.4 µM)
CN1c2ccc([N+](=O)[O-])cc2N(C)C1(C)c1ccccc1 (configuration not stated) | 1.2 (≈ 4.24 µM)
FC(F)(F)c1ccccc1N1CC1c1ccncc1 (configuration not stated) | 31 (≈ 117 µM)
Cc1ccc(C(=O)NC2CCCc3ccccc32)cc1[N+](=O)[O-] (configuration not stated) | 9.3 (≈ 30 µM)
O=C(O)c1ccccc1-c1ccccc1C(=O)Nc1nc2ccccc2s1 | > 56.2
O=C1CCc2ccc(NC(=O)C3CC3)cc2N1 | > 34.5
COc1ccccc1NS(=O)(=O)c1cc(C(=O)N2CCCCCC2)ccc1C | 9.6 (≈ 23.8 µM)
CCN(c1ccccc1)S(=O)(=O)c1ccc(C(=O)N2CCOCC2)cc1 | > 56.2
NCCCNC(=O)c1ccc(/C=N/O)nc1 | > 33.3
COC(=O)CCC(=O)Nc1cc(Cl)cc(Cl)c1 | 32.3 (≈ 117 µM)
Cc1ccccc1C(=O)NCC(=O)NC1CC1 | > 34.8
CC(C)CC(NC(N)=O)C(=O)NCc1ccc(Cl)cc1 (configuration not stated) | 35.3 (≈ 119 µM)
CCCNC(=O)COC(=O)c1ccc(N2CCCC2)c([N+](=O)[O-])c1 | 15.9 (≈ 47.4 µM)
O=C(COC(=O)C1CC1)Nc1ccc(Cl)cn1 | > 38.2
CCOc1ccccc1OC(=O)CN1C(=O)c2ccccc2C1=O | 16.2 (≈ 49.8 µM)
COc1ccc(OC)c(CNC(=O)CCc2cn(C)c3ccccc23)c1 | 12.7 (≈ 36 µM)
CCN1CCN(c2cc(C)nc(-c3ccccc3O)n2)CC1 | > 44.8
COc1ccccc1N1CCN(CCN2C(=O)C3CCCCN3C2=O)CC1 (configuration not stated) | 40.8 (≈ 110 µM)
CC(OC(=O)C1=COCCO1)C(=O)Nc1ccc(Cl)cn1 (configuration not stated) | > 46.9

SMILES | solubility kinetic [µg/mL]
CN(C)C(=O)Oc1ccc2c(c1)O/C(=C\c1cccc([N+](=O)[O-])c1)C2=O | < 0.4
CC1(C)c2ccccc2-n2c1cc1oc(=O)cc(O)c1c2=O | 35.6 (≈ 121 µM)
CCOc1ccc(-n2c([O-])cc(=O)[nH]c2=O)cc1.[NH4+] | 35.2
O=C(NCCCCNC(=O)c1ccc(F)cc1)c1ccc(F)cc1 | 3.9 (≈ 11.7 µM)
Cc1ncsc1C(=O)Nc1cccc(C(F)(F)F)c1 | 40.7 (≈ 142 µM)
CC(=O)c1cccc(NC(=O)C2C3CCC(C3)C2C(=O)O)c1 (configuration not stated) | 42.9 (≈ 142 µM)
Cc1ccccc1CN1CCN(CC2CC2)CC1CCO (configuration not stated) | > 43.3
CCN(CC)C(=O)CSC(Nc1ccc(F)cc1)=C(C#N)C#N | > 49.9
CC1CCCN(C(=O)COc2ccc(Nc3ccccc3)cc2)C1 (configuration not stated) | 6.2 (≈ 19.1 µM)
O=c1[nH]c(O)c(C=Nc2cccc(F)c2)c(=O)[nH]1 | 4.8 (≈ 19.3 µM)
COc1ccc(CN2CC(C(=O)NCCC(C)C)CC2=O)cc1 (configuration not stated) | > 47.8
COCCn1c(=S)[nH]c2sc3c(c2c1=O)CCCC3 | > 44.5
CC(=O)Nc1ccc(S(=O)(=O)N[C@@H](C)C(=O)NC2CCCc3ccccc32)cc1 (some centres not stated) | 30.3 (≈ 72.9 µM)
CC(=O)c1c(Cl)nc2cccc3c2c1-c1ccccc1C3=O | < 0.7
COc1ccc(C(C)NC(=O)C23CC4CC(CC(C4)C2)C3)cc1OC (configuration not stated) | 40.2 (≈ 117 µM)
O=C(COC(=O)c1ccco1)NCc1ccc(Cl)cc1Cl | 14.1 (≈ 43 µM)
CCN(CC)C(=O)c1ccccc1NC(=O)c1ccccc1C | > 46.6
CCCCc1c(C)[nH]c2nc3ccccc3n2c1=O | < 0.2
COc1ccc(CNC(=O)COC(=O)c2cccn2C)cc1 | > 45.3
CC(=O)Nc1ccc(NC(=S)NC(=O)c2ccc(-c3ccccc3)cc2)cc1 | 0.9 (≈ 2.31 µM)
O=C1c2ccsc2SCCN1Cc1ccc(F)cc1 | 40.5 (≈ 138 µM)
O=C1Nc2ccc(Br)cc2C1=C1CCCCC1 | 7.4 (≈ 25.3 µM)
O=Cc1cnc(N2CCCCC2)s1 | 27.6 (≈ 141 µM)
COc1ccc(Nc2cc(C)c3cc([N+](=O)[O-])ccc3n2)cc1 | < 0.2

SMILES | solubility kinetic [µg/mL]
CC1CCCN(C(=O)COC(=O)COc2ccc(Cl)cc2)C1 (configuration not stated) | 20.2 (≈ 62 µM)
CCNC(=O)COC(=O)c1cc(C)n(-c2ccccc2)c1C | > 45.1
Fc1ccc(C2Nc3cccc4cccc(c34)N2)cc1 | 3.2 (≈ 12.1 µM)
COc1ccc(NC(=O)c2ccccc2Oc2ccccc2)cc1 | < 0.7
Cc1nc([N+](=O)[O-])cn1CCC#N | > 27
CN(CC(=O)Nc1cccc(F)c1)C(=O)C1=COCCO1 | > 44.1
C=C1C(C(=O)Nc2ccc(OC)cc2)C1C(=O)Nc1ccc(OC)cc1 (configuration not stated) | 0.6 (≈ 1.7 µM)
FC(F)(F)c1nc(NCc2cccnc2)c2ccccc2n1 | 2.6 (≈ 8.54 µM)
Cc1cccc(NC(=O)CCN2CCC(C)CC2)c1 | > 39.1
CC1CCN(C(=O)/C(=C\c2ccco2)NC(=O)c2ccccc2)CC1 | > 50.8
CCCSc1nsc(NC(=O)CCC)n1 | 10.8 (≈ 44 µM)
CCOC(=O)c1c(CC(C)C)csc1NC(=O)c1ccccc1C(=O)O | 54.1 (≈ 144 µM)
O=C(O)/C=C/c1cccnc1 | > 22.4
COc1c(C)cc(S(=O)(=O)N2CCOCC2)c(C)c1C | > 44.9
CC1CCCCC12NC(=O)N(CC(=O)OCC(=O)Nc1ccc(F)cc1[N+](=O)[O-])C2=O (configuration not stated) | 7.5 (≈ 17.2 µM)
CN1Cc2c(N3CCOCC3)nc3sc(C#N)c(N)c3c2CC1(C)C | 15 (≈ 42 µM)
CCCC(=O)Nc1ccc2c(c1)nc(CCN1CCCCC1)n2C | > 49.3
Cc1ccc(C2C(C#N)=C(N)Oc3cc(C)oc(=O)c32)o1 (configuration not stated) | > 42.6
COc1ccc([C@@H]2OC2(C(N)=O)C(N)=O)cc1 | 32.2 (≈ 136 µM)
N#Cc1c(-c2ccco2)ccn(Cc2ccc(F)cc2)c1=O | 9 (≈ 30.6 µM)
CCCOc1ccc(CN2CCOCC2)cc1OC.Cl | > 45.3
CC(C)(C)c1cc(NC(=O)Nc2ccccc2OC(F)(F)F)no1 | < 0.2
CCN(Cc1cc2ccccc2[nH]c1=O)C(=O)c1cccc([N+](=O)[O-])c1 | 39.3 (≈ 112 µM)
CSc1ncccc1C(=O)NC1CCN(Cc2ccccc2)CC1 | 48.1 (≈ 141 µM)

SMILES | solubility kinetic [µg/mL]
O=C(c1cccc(F)c1)N1CCCC(C(=O)N2CCCCC2)C1 (configuration not stated) | > 47.8
Cc1cccc(C(=O)O/N=C(\N)c2ccccn2)c1 | > 38.3
CCOC(=O)c1ccccc1NC(=O)CSc1nc2ccccc2c(=O)n1CCCN1CCOCC1 | 18.6 (≈ 36.4 µM)
O=C(O)CC(NC(=O)CCc1ccccc1)c1ccc(Cl)cc1 (configuration not stated) | 44.5 (≈ 134 µM)
O=C(COC(=O)COc1ccccc1)NCc1ccco1 | > 43.4
CC(=O)N(C)c1ccc(NC(=O)Cc2cccs2)cc1 | 42.6 (≈ 148 µM)
CN(Cc1ccccc1)C(=O)CN1C(=O)c2ccc([N+](=O)[O-])cc2C1=O | > 53
COc1cc(NC(=S)N2CCOCC2)c(OC)cc1Cl | > 47.5
COc1cc(CNC(=O)C2CCCC2)cc(OC)c1OC | > 44
Clc1ccc(Cn2ccc3ccccc32)cn1 | 26.4 (≈ 109 µM)
Cc1ccc(C)c(S(=O)(=O)NCc2ccc3c(c2)OCO3)c1 | 47.7 (≈ 149 µM)
COc1cccc(C(=O)Nc2ccc(NC(=O)C3CC3)nc2)c1 | 1.6 (≈ 5.14 µM)
COc1ccc(NS(=O)(=O)c2ccc(O)c(NS(=O)(=O)c3ccc(NC(C)=O)cc3)c2)cc1 | > 73.7
NS(=O)(=O)c1ccc(NC(=O)Cc2cccs2)cc1 | > 44.5
COc1ccc(Nc2nnc(C)c(=O)[nH]2)c(OC)c1 | > 39.3
CCCc1ccc2oc(C(=O)N(C)Cc3nccs3)c(C)c2c1 | 14 (≈ 42.6 µM)
CC(NC(=O)COC(=O)C1CC2CCCC(C1)C2=O)c1ccccc1 (configuration not stated) | > 51.5
COc1cc(NC(=O)c2onc(C)c2Cl)cc(OC)c1OC | 28.7 (≈ 87.8 µM)
CCc1ccc(NC(=O)NC2CCCCCCC2)cc1 | < 0.3
O=C(NC1CCCCC1)c1ccccc1C(F)(F)F | 38.9 (≈ 143 µM)
CC(C)[N+]1=C2C=CC=CC=C2SC12C([N+](=O)[O-])=CC(=[N+]([O-])[O-])C=C2[N+](=O)[O-] (configuration not stated) | 1.3 (≈ 3.33 µM)
Cc1nc(SCC(=O)N2CCCCC2)c2c(C)c(C)sc2n1 | 33.7 (≈ 100 µM)
Cc1cc([N+](=O)[O-])nn1CC(=O)NC1CCCCC1 | > 39.9
COCCn1c(SC2CCOC2=O)nc2ccccc2c1=O (configuration not stated) | > 48.1

SMILES | solubility kinetic [µg/mL]
COc1ccccc1NC(=S)NC(C)C(c1cccs1)N1CCOCC1 (configuration not stated) | > 58.7
COc1ccc(/C=C/C(=O)OCC(=O)NC2CCCCCCC2)cc1 | 7.6 (≈ 22 µM)
COCCNc1nnc(Cc2ccccc2)c(=O)[nH]1 | > 39
CCCc1cc(=O)[nH]c(SCC(=O)Nc2ccc(OC)c(S(=O)(=O)N3CCCCC3)c2)n1 | 13.8 (≈ 28.7 µM)
Cc1c(CCOC(=O)c2ccc(Cl)cc2Cl)sc[n+]1CC(=O)c1ccccc1.[Br-] | > 77.3
Cc1ccc2c(=O)cc(C(=O)NCc3ccccc3)oc2c1C | < 0.7
COc1ccc(/C(N)=N/OC(=O)c2ccc(OC)c([N+](=O)[O-])c2)cc1OC | 0.6 (≈ 1.6 µM)
O=C(COC(=O)c1cnccn1)Nc1cccc2ccccc12 | > 46.1
O=C(O)c1cccc(S(=O)(=O)Nc2cccc3ccccc23)c1 | > 49.1
Cc1ccc(C)c(NC(=S)N2CCC(NC(=O)c3ccco3)CC2)c1 | 45.4 (≈ 127 µM)
O=Cc1cnc2ccccc2c1-c1ccccc1 | 27.8 (≈ 119 µM)
Cc1ccc(NS(=O)(=O)c2c(C)[nH]c(=O)[nH]c2=O)c(C)c1 | > 46.4
CC(C)(CNC(=O)c1ccccc1F)CNC(=O)c1ccccc1F | 51.6 (≈ 149 µM)
CCCCCCCCCCOC(=O)NC1CCS(=O)(=O)C1 (configuration not stated) | 1.1 (≈ 3.44 µM)
O=C1Nc2ccccc2OCc2c1cccc2[N+](=O)[O-] | 3.9 (≈ 14.4 µM)
Cc1cc(/C(N)=N/OC(=O)Nc2ccc(Cl)cc2)no1 | 15.9 (≈ 54 µM)
CCCCc1ncc(CN2CCN(Cc3ccc(C)cc3)C(CCO)C2)[nH]1 (configuration not stated) | 49.1 (≈ 133 µM)
COc1cccc(C2Nc3ccccc3C(=O)N2Cc2ccccc2)c1 (configuration not stated) | 17.3 (≈ 50.2 µM)
CC(=O)N1CCN(CCS(=O)(=O)c2cc(Cl)ccc2Cl)CC1 | > 54.8
C/C(=N\NC1=NCCN1)c1ccc(N)c([N+](=O)[O-])c1 | > 39.3
O=C(/C=C/c1ccc(O)c(O)c1)NC(=O)c1ccccc1O | > 44.9
